From patent US9149038B2, “4-amino-6-(heterocyclic)picolinates and 6-amino-2-(heterocyclic)pyrimidine-4-carboxylates and their use as herbicides” (Dow AgroSciences LLC, priority 2013, dated 2015)
Where two headings read alike, the source gives them in different places.

Key:
[1] = system: Key Grass and Sedge Weeds as well as Grass Crops; experiment: Post-Emergent Test II: postemergent herbicidal activity, visual rating after 14 d (Table 8); format: in vivo; conditions: post-emergence, 336 h; for pest or weed control at 35 g/ha: 35 g ai/ha; for pest or weed control at 70 g/ha: 70 g ai/ha; for pest or weed control at 140 g/ha: 140 g ai/ha; for pest or weed control at 280 g/ha: 280 g ai/ha
Method in brief: (§1)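 Scoring is visual, 0-100, at 14 d after application, comparing treated with untreated plants. Application: overhead track spray at 187 L/ha onto seedlings at 1-2 true leaves, in surfactant/crop-oil carrier.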

[2] = system: Key Broadleaf Weed and Crop Species; experiment: Post-Emergent Test II: postemergent herbicidal activity, visual rating after 14 d (Table 7); format: in vivo; conditions: post-emergence, 336 h; for pest or weed control at 35 g/ha: 35 g ai/ha; for pest or weed control at 70 g/ha: 70 g ai/ha; for pest or weed control at 140 g/ha: 140 g ai/ha; for pest or weed control at 280 g/ha: 280 g ai/ha
Method in brief: as §1

[3] = barnyardgrass (Echinochloa crus-galli), read-out: Visual Growth Reduction (%) 14 Days After Application, ECHCG
[4] = giant foxtail (Setaria faberi), read-out: Visual Growth Reduction (%) 14 Days After Application, SETFA
[5] = maize, corn (Zea mays), read-out: Visual Growth Reduction (%) 14 Days After Application, ZEAMX
[6] = rice (Oryza sativa), read-out: Visual Growth Reduction (%) 14 Days After Application, ORYSA
[7] = wheat, spring (Triticum aestivum), read-out: Visual Growth Reduction (%) 14 Days After Application, TRZAS
[8] = yellow nutsedge (Cyperus esculentus), read-out: Visual Growth Reduction (%) 14 Days After Application, CYPES
[9] = ABUTH: velvetleaf (Abutilon theophrasti), read-out: Visual Growth Reduction (%) 14 Days After Application ABUTH
[10] = AMARE: redroot pigweed (Amaranthus retroflexus), read-out: Visual Growth Reduction (%) 14 Days After Application AMARE
[11] = BRSNN: oilseed rape, canola (Brassica napus), read-out: Visual Growth Reduction (%) 14 Days After Application BRSNN
[12] = CHEAL: lambsquarters (Chenopodium album), read-out: Visual Growth Reduction (%) 14 Days After Application CHEAL
[13] = EPHHL: wild poinsettia (Euphorbia heterophylla), read-out: Visual Growth Reduction (%) 14 Days After Application EPHHL
[14] = HELAN: sunflower (Helianthus annuus), read-out: Visual Growth Reduction (%) 14 Days After Application HELAN

COC(=O)c1nc(-c2ccc3c(c2F)OC(F)(F)C3(F)F)cc(N)c1Cl [Compound 106]
pest or weed control at 35 g/ha [1, 3]: 0 to 29%
pest or weed control at 70 g/ha [1, 3]: 0 to 29%
pest or weed control at 140 g/ha [1, 3]: 0 to 29%
pest or weed control at 280 g/ha [1, 3]: 0 to 29%
pest or weed control at 35 g/ha [1, 4]: 0 to 29%
pest or weed control at 70 g/ha [1, 4]: 0 to 29%
pest or weed control at 140 g/ha [1, 4]: 0 to 29%
pest or weed control at 280 g/ha [1, 4]: 0 to 29%
pest or weed control at 35 g/ha [1, 5]: 0 to 29%
pest or weed control at 70 g/ha [1, 5]: 0 to 29%
pest or weed control at 140 g/ha [1, 5]: 0 to 29%
pest or weed control at 280 g/ha [1, 5]: 0 to 29%
pest or weed control at 35 g/ha [1, 6]: 0 to 29%
pest or weed control at 70 g/ha [1, 6]: 0 to 29%
pest or weed control at 140 g/ha [1, 6]: 0 to 29%
pest or weed control at 280 g/ha [1, 6]: 0 to 29%
pest or weed control at 35 g/ha [1, 7]: 0 to 29%
pest or weed control at 70 g/ha [1, 7]: 0 to 29%
pest or weed control at 140 g/ha [1, 7]: 0 to 29%
pest or weed control at 280 g/ha [1, 7]: 0 to 29%
pest or weed control at 35 g/ha [1, 8]: 0 to 29%
pest or weed control at 70 g/ha [1, 8]: 0 to 29%
pest or weed control at 140 g/ha [1, 8]: 0 to 29%
pest or weed control at 280 g/ha [1, 8]: 0 to 29%
pest or weed control at 35 g/ha [2, 9]: 45 to 59%
pest or weed control at 70 g/ha [2, 9]: 75 to 84%
pest or weed control at 140 g/ha [2, 9]: 75 to 84%
pest or weed control at 280 g/ha [2, 9]: 85 to 94%
pest or weed control at 35 g/ha [2, 10]: 30 to 44%
pest or weed control at 70 g/ha [2, 10]: 30 to 44%
pest or weed control at 140 g/ha [2, 10]: 60 to 74%
pest or weed control at 280 g/ha [2, 10]: 75 to 84%
pest or weed control at 35 g/ha [2, 11]: 0 to 29%
pest or weed control at 70 g/ha [2, 11]: 0 to 29%
pest or weed control at 140 g/ha [2, 11]: 0 to 29%
pest or weed control at 280 g/ha [2, 11]: 0 to 29%
pest or weed control at 35 g/ha [2, 12]: 0 to 29%
pest or weed control at 70 g/ha [2, 12]: 0 to 29%
pest or weed control at 140 g/ha [2, 12]: 45 to 59%
pest or weed control at 280 g/ha [2, 12]: 75 to 84%
pest or weed control at 35 g/ha [2, 13]: 45 to 59%
pest or weed control at 70 g/ha [2, 13]: 60 to 74%
pest or weed control at 140 g/ha [2, 13]: 75 to 84%
pest or weed control at 280 g/ha [2, 13]: 75 to 84%
pest or weed control at 35 g/ha [2, 14]: 0 to 29%
pest or weed control at 70 g/ha [2, 14]: 0 to 29%
pest or weed control at 140 g/ha [2, 14]: 0 to 29%
pest or weed control at 280 g/ha [2, 14]: 30 to 44%

COC(=O)c1nc(-c2ccc(Cl)c3c2OC(F)(F)O3)nc(N)c1OC [Compound 95]
pest or weed control at 35 g/ha [1, 3]: 0 to 29%
pest or weed control at 70 g/ha [1, 3]: 0 to 29%
pest or weed control at 140 g/ha [1, 3]: 0 to 29%
pest or weed control at 35 g/ha [1, 4]: 0 to 29%
pest or weed control at 70 g/ha [1, 4]: 0 to 29%
pest or weed control at 140 g/ha [1, 4]: 0 to 29%
pest or weed control at 35 g/ha [1, 5]: 0 to 29%
pest or weed control at 70 g/ha [1, 5]: 0 to 29%
pest or weed control at 140 g/ha [1, 5]: 0 to 29%
pest or weed control at 35 g/ha [1, 6]: 0 to 29%
pest or weed control at 70 g/ha [1, 6]: 0 to 29%
pest or weed control at 140 g/ha [1, 6]: 0 to 29%
pest or weed control at 35 g/ha [1, 7]: 0 to 29%
pest or weed control at 70 g/ha [1, 7]: 0 to 29%
pest or weed control at 140 g/ha [1, 7]: 0 to 29%
pest or weed control at 35 g/ha [1, 8]: 0 to 29%
pest or weed control at 70 g/ha [1, 8]: 45 to 59%
pest or weed control at 140 g/ha [1, 8]: 45 to 59%
pest or weed control at 35 g/ha [2, 9]: 45 to 59%
pest or weed control at 70 g/ha [2, 9]: 75 to 84%
pest or weed control at 140 g/ha [2, 9]: 75 to 84%
pest or weed control at 35 g/ha [2, 10]: 95 to 100%
pest or weed control at 70 g/ha [2, 10]: 95 to 100%
pest or weed control at 140 g/ha [2, 10]: 95 to 100%
pest or weed control at 35 g/ha [2, 11]: 45 to 59%
pest or weed control at 70 g/ha [2, 11]: 45 to 59%
pest or weed control at 140 g/ha [2, 11]: 60 to 74%
pest or weed control at 35 g/ha [2, 12]: 95 to 100%
pest or weed control at 70 g/ha [2, 12]: 95 to 100%
pest or weed control at 140 g/ha [2, 12]: 95 to 100%
pest or weed control at 35 g/ha [2, 13]: 0 to 29%
pest or weed control at 70 g/ha [2, 13]: 0 to 29%
pest or weed control at 140 g/ha [2, 13]: 0 to 29%
pest or weed control at 35 g/ha [2, 14]: 95 to 100%
pest or weed control at 70 g/ha [2, 14]: 95 to 100%
pest or weed control at 140 g/ha [2, 14]: 95 to 100%

Nc1cc(-c2ccc(Cl)c3c2OC(F)(F)O3)nc(C(=O)O)c1Cl [Compound 87]
pest or weed control at 35 g/ha [1, 3]: 0 to 29%
pest or weed control at 70 g/ha [1, 3]: 0 to 29%
pest or weed control at 140 g/ha [1, 3]: 0 to 29%
pest or weed control at 35 g/ha [1, 4]: 0 to 29%
pest or weed control at 70 g/ha [1, 4]: 0 to 29%
pest or weed control at 140 g/ha [1, 4]: 0 to 29%
pest or weed control at 35 g/ha [1, 5]: 0 to 29%
pest or weed control at 70 g/ha [1, 5]: 0 to 29%
pest or weed control at 140 g/ha [1, 5]: 0 to 29%
pest or weed control at 35 g/ha [1, 6]: 0 to 29%
pest or weed control at 70 g/ha [1, 6]: 0 to 29%
pest or weed control at 140 g/ha [1, 6]: 0 to 29%
pest or weed control at 35 g/ha [1, 7]: 0 to 29%
pest or weed control at 70 g/ha [1, 7]: 0 to 29%
pest or weed control at 140 g/ha [1, 7]: 0 to 29%
pest or weed control at 35 g/ha [1, 8]: 0 to 29%
pest or weed control at 70 g/ha [1, 8]: 0 to 29%
pest or weed control at 140 g/ha [1, 8]: 0 to 29%
pest or weed control at 35 g/ha [2, 9]: 75 to 84%
pest or weed control at 70 g/ha [2, 9]: 85 to 94%
pest or weed control at 140 g/ha [2, 9]: 85 to 94%
pest or weed control at 35 g/ha [2, 10]: 95 to 100%
pest or weed control at 70 g/ha [2, 10]: 95 to 100%
pest or weed control at 140 g/ha [2, 10]: 95 to 100%
pest or weed control at 35 g/ha [2, 11]: 60 to 74%
pest or weed control at 70 g/ha [2, 11]: 75 to 84%
pest or weed control at 140 g/ha [2, 11]: 85 to 94%
pest or weed control at 35 g/ha [2, 12]: 95 to 100%
pest or weed control at 70 g/ha [2, 12]: 95 to 100%
pest or weed control at 140 g/ha [2, 12]: 95 to 100%
pest or weed control at 35 g/ha [2, 13]: 0 to 29%
pest or weed control at 70 g/ha [2, 13]: 0 to 29%
pest or weed control at 140 g/ha [2, 13]: 0 to 29%
pest or weed control at 35 g/ha [2, 14]: 75 to 84%
pest or weed control at 70 g/ha [2, 14]: 75 to 84%
pest or weed control at 140 g/ha [2, 14]: 75 to 84%
